The values that follow come from paper PMC11010885, “Functional Analysis and Tissue-Specific Expression of Calcitonin and CGRP with RAMP-Modulated Receptors CTR and CLR in Chickens” (Animals : an Open Access Journal from MDPI, 2024).

Assay type in all cases: cell-based
Experiment [1] deals with chicken CLR. In words: Western blot CREB phosphorylation, CLR in CHO cells. Conditions: 10 nM, 10 min, n = 3. Here is the method:
(§1) To assess whether the activation of chicken CTR and CLR, along with the presence of RAMPs, can augment the phosphorylation levels of cAMP response element-binding protein (CREB), 200 ng of CTR or CLR expression plasmids were combined with 1000 ng of chicken RAMPs or an empty pcDNA3.1 (+) vector in a 100 μL buffer. The resulting mixture was then transfected into CHO cells in a 12-well plate (Nunc, Rochester, NY, USA) using 3.6 μL of PEI MAX transfection reagent. After a 24 h incubation period, the cells were exposed to chicken CT (10 nM) or CGRP (10 nM) for 10 min. Subsequently, the culture medium was removed, and the cells were lysed according to the manufacturer’s instructions. Western blot analysis was performed to quantify the levels of CREB and phosphorylated CREB (p-CREB). The optical densities were analyzed and normalized using the software, ImageJ 1.52a (National Institutes of Health, Bethesda, MD, USA). The relative expression of p-CREB/CREB was determined by calculating the ratio of the optical density to that of the control without peptide treatment (0 min).
Background: In western blotting, separated proteins are transferred to a membrane and probed.

In experiment [2] the test system is chicken CLR. In words: MAPK/ERK pGL4-SRE-luciferase reporter assay, CLR + pcDNA in CHO cells. Conditions: 10^−12 M to 10^−6 M, 6 h, mean ± SEM, n = 3, read-out: EC50, MAPK/ERK signaling pathway. Here is the method:
(§2) Chinese hamster ovary (CHO) cells were cultured in Dulbecco’s modified Eagle’s medium (DMEM) supplemented with 10% (vol/vol) fetal bovine serum (HyClone, Logan, UT, USA), 100 U/mL penicillin G and 100 μg/mL streptomycin. The cells were maintained in a 90 mm culture dish (Nunc, Rochester, NY, USA) and incubated at 37 °C with 5% CO2. To investigate the signaling pathways associated with each receptor in CHO cells, three different reporter systems (pGL3-CRE-luciferase, pGL4-SRE-luciferase, and pGL3-NFAT-RE-luciferase) were utilized to monitor intracellular cAMP/PKA and MAPK/ERK signaling pathways and calcium mobilization of the activated receptors, respectively.
(§3) Prior to the transfection procedure, the cells were initially cultured in 6-well plates (Nunc, Rochester, NY, USA), maintaining a seeding density of approximately 300,000 cells per well. Upon achieving approximately 70% confluence, the cells underwent a co-transfection process. […] The fluorescence activity of the luciferase in each treatment group was measured using a multimode microplate reader (TriStar LB941, Berthold Technologies, Bad Wildbad, Germany). Finally, the fluorescence activity of each treatment group was expressed as a relative increase ratio compared to the control group.
A general note: A reporter such as luciferase makes a cellular process visible.

The test system of experiment [3] is chicken CLR + RAMP3. In words: cAMP/PKA pGL3-CRE-luciferase reporter assay, CLR + RAMP3 in CHO cells. Conditions: 10^−12 M to 10^−6 M, 6 h, mean ± SEM, n = 3, read-out: EC50, cAMP/PKA signaling pathway. The procedure: as §2, §3
The next experiment concerns chicken CLR + RAMPs. In words: Western blot CREB phosphorylation, CLR + RAMPs in CHO cells. Conditions: 10 nM, 10 min, n = 3. Here is the method: as §1
For experiment [4], the system named is chicken CTR + RAMP3. The experiment can be described thus: cAMP/PKA pGL3-CRE-luciferase reporter assay, CTR + RAMP3 in CHO cells. Conditions: 10^−12 M to 10^−6 M, 6 h, mean ± SEM, n = 3, read-out: EC50, cAMP/PKA signaling pathway. The procedure: as §2, §3
Experiment [5] relates to chicken CTR + RAMP1. In words: Calcium pGL3-NFAT-RE-luciferase reporter assay, CTR + RAMP1 in CHO cells. Conditions: 10^−12 M to 10^−6 M, 6 h, mean ± SEM, n = 3, read-out: EC50, calcium signaling pathway. Here is the method:
as §2, §3

Experiment [6] concerns chicken CTR + RAMP1. In words: MAPK/ERK pGL4-SRE-luciferase reporter assay, CTR + RAMP1 in CHO cells. Conditions: 10^−12 M to 10^−6 M, 6 h, mean ± SEM, n = 3, read-out: EC50, MAPK/ERK signaling pathway. Here is the method: as §2, §3
A further experiment deals with chicken CLR + RAMP2. The experiment can be described thus: Calcium pGL3-NFAT-RE-luciferase reporter assay, CLR + RAMP2 in CHO cells. Conditions: for EC50: CLR + RAMP2, CHO cells, pGL3-NFAT-RE-luciferase, 10^−12 M to 10^−6 M, 6 h, mean ± SEM, n = 3, read-out: EC50, calcium signaling pathway. Here is the method:
as §2
(§4) Prior to the transfection procedure, the cells were initially cultured in 6-well plates (Nunc, Rochester, NY, USA), maintaining a seeding density of approximately 300,000 cells per well. Upon achieving approximately 70% confluence, the cells underwent a co-transfection process. This procedure entailed the introduction of 700 ng of various luciferase reporter constructs (namely, pGL3-CRE-luciferase, pGL4-SRE-luciferase, or pGL3-NFAT-RE-luciferase) combined with 200 ng of a specific receptor plasmid (CTR or CLR) and 1000 ng of either RAMP1, RAMP2, RAMP3 expression plasmids, or alternatively, the empty pcDNA3.1 (+) vector. A volume of 5.7 μL of PEI MAX was used in 200 μL of buffer following the manufacturer’s protocol. After 24 h of incubation, the transfected CHO cells were subcultured in 96-well plates and passaged for an additional 24 h before peptide treatment. Then, the medium from the 96-well plates was removed, and the cells were treated with chicken CT/CGRP-containing medium (or untreated medium as a control) at concentrations ranging from 10^−12 M to 10^−6 M for 6 h. […] The fluorescence activity of the luciferase in each treatment group was measured using a multimode microplate reader (TriStar LB941, Berthold Technologies, Bad Wildbad, Germany). Finally, the fluorescence activity of each treatment group was expressed as a relative increase ratio compared to the control group.

Experiment [7] has as its system chicken CTR + RAMP3. The experiment can be described thus: MAPK/ERK pGL4-SRE-luciferase reporter assay, CTR + RAMP3 in CHO cells. Conditions: 10^−12 M to 10^−6 M, 6 h, mean ± SEM, n = 3, read-out: EC50, MAPK/ERK signaling pathway. Here is the method:
as §2, §3

A further experiment concerns chicken CTR + RAMP2. The experiment can be described thus: Calcium pGL3-NFAT-RE-luciferase reporter assay, CTR + RAMP2 in CHO cells. Conditions: for EC50: CTR + RAMP2, CHO cells, pGL3-NFAT-RE-luciferase, 10^−12 M to 10^−6 M, 6 h, mean ± SEM, n = 3, read-out: EC50, calcium signaling pathway. Here is the method: as §2, §4
The test system of the next experiment is chicken CLR + RAMP1. The experiment can be described thus: Western blot CREB phosphorylation, CLR + RAMP1 in CHO cells. Conditions: 10 nM, 10 min, n = 3. The procedure:
as §1

Experiment [8] relates to chicken CLR + RAMP3. The experiment can be described thus: Western blot CREB phosphorylation, CLR + RAMP3 in CHO cells. Conditions: 10 nM, 10 min, n = 3. Here is the method: as §1
Experiment [9] deals with chicken CLR. In words: Calcium pGL3-NFAT-RE-luciferase reporter assay, CLR + pcDNA in CHO cells. Conditions: 10^−12 M to 10^−6 M, 6 h, mean ± SEM, n = 3, read-out: EC50, calcium signaling pathway. The procedure:
as §2, §3

On to calcitonin [CT], for which the “CREB phosphorylation (p-CREB/CREB vs. control, 0 min)” value in the experiment with chicken CLR [1] and with chicken CLR + RAMPs was “significantly enhanced the CREB phosphorylation” in each case. Further, the EC50 in the experiment with chicken CLR [2] is 0.3 ± 0.12 nM; in the experiment on chicken CLR + RAMP3 [3], 1.27 ± 0.83 nM; with chicken CTR + RAMP3 [4], 0.44 ± 0.1 nM; with chicken CTR + RAMP1 [5], above 100 nM; in the experiment with chicken CTR + RAMP1 [6], 1.38 ± 0.24 nM; in the experiment with chicken CLR + RAMP2, 1.52 ± 1.32 nM. Further, the EC50 in the experiment with chicken CTR + RAMP3 [7] was found to be 0.38 ± 0.13 nM; in the experiment on chicken CTR + RAMP2, 2.5 ± 1.81 nM. Besides, the “elevation in luciferase activity, calcium signaling” value with chicken CLR + RAMP2 (CLR + RAMP2, pGL3-NFAT-RE-luciferase, CHO cells) is “modest elevation in luciferase activity”; with chicken CTR + RAMP2 (CTR + RAMP2, pGL3-NFAT-RE-luciferase, CHO cells) it was “modest elevation in luciferase activity”.
calcitonin gene-related peptide [CGRP]: the “CREB phosphorylation (p-CREB/CREB vs. control, 0 min)” value in the experiment on chicken CLR + RAMP1 and with chicken CLR + RAMP3 [8] was “significantly enhanced the CREB phosphorylation” in each case. Besides, the EC50 in the experiment on chicken CLR [2] was above 100 nM; in the experiment with chicken CLR + RAMP3 [3], 1.84 ± 0.73 nM; with chicken CTR + RAMP3 [4], 0.24 ± 0.07 nM; in the experiment on chicken CTR + RAMP1 [5], above 100 nM; with chicken CTR + RAMP1 [6], 0.41 ± 0.08 nM; in the experiment on chicken CLR + RAMP2, above 100 nM. The results for the EC50 in the experiment with chicken CTR + RAMP3 [7], in the experiment with chicken CLR [9] and in the experiment on chicken CTR + RAMP2 were 0.67 ± 0.24 nM, above 100 nM and above 100 nM, respectively.
